Test results taken from publication PMC7479175, “Selection of Potent Inhibitors of Soluble Epoxide Hydrolase for Usage in Veterinary Medicine” (Frontiers in Veterinary Science, 2020).
Where two headings read alike, the source gives them in different places.

How the values were obtained:
Type in all cases: biochemical
[1] = target: T1, Cat sEH (Felis catus, UniProt A0ABI7ZL20); experiment: Secondary screen (kinetic mode), PHOME substrate; details: read-out: Cat sEH Inhibition (%) S.
[2] = target: T1, Cat sEH; experiment: sEH inhibition potency (IC50), fluorescent assay with CMNPC, partially purified enzyme; details: CMNPC ([S]final = 5 μM) as substrate; average ± standard deviation (n = 3)
Experimental: The IC50 values reported herein were determined using either a fluorescent based assay (CMNPC as substrate) for purified enzyme preparations or a radioactive based assay ([^3H]t-DPPO as substrate) for crude enzyme preparations ([20]). The fluorescent assay was used with the purified proteins. […] The substrate (CMNPC) was then added ([S]final = 5 μM). […] Assays were performed in triplicate.

[3] = target: sEH activity from liver cytosol of Sheep (Ovis aries, UniProt A0ACI6PZ20); experiment: sEH inhibition potency (IC50), radioactive assay with [3H]t-DPPO, liver cytosol
Chain of sEH activity from liver cytosol of Sheep (A0ACI6PZ20 entry or part of it): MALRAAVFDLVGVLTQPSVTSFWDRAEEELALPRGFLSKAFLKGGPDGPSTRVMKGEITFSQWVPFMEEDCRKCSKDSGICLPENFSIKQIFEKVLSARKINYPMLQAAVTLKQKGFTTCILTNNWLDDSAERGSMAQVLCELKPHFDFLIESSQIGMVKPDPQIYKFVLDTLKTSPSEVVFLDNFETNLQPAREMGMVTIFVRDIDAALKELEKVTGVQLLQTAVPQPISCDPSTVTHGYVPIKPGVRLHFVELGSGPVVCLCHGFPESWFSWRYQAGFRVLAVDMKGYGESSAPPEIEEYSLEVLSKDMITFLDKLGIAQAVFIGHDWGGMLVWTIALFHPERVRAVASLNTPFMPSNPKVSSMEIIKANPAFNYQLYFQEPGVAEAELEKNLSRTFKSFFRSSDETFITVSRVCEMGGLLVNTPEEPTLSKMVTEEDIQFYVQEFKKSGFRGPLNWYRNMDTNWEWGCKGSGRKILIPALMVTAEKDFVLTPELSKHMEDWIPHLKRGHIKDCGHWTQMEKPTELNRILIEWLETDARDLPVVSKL
Excerpt: (§1) Fresh liver tissues samples (5–30 g) were collected promptly after death from healthy adult cat, dog and horse euthanized for reasons unrelated to this study, and whose bodies were given to science by the owners in line with federal regulations and protocol approved by the Institutional Animal Care and Use Committee at University of California Davis. Similarly, tissues from the other animals tested herein were collected from healthy animals immediately after being slaughter at the university abattoir. Because no animals were directly used or killed for this study, sample collections were exempted from approval by the Institutional Animal Care and Use Committee of the University of California Davis and Michigan State University. […] The tissues were flash-frozen in liquid nitrogen following removal, and then kept at −80°C until used. After thawing on ice, the samples were homogenized in chilled sodium phosphate buffer (20 mM pH 7.4) containing 5 mM EDTA, 1 mM DTT and 1 mM PMSF (tissue weight:buffer volume ratio 1:4). These homogenates were centrifuged at 100,000 g for 60 min at 4°C. The supernatant (the cytosolic fraction) was separated from the pellet, aliquoted and flash frozen in liquid nitrogen, then kept frozen at −80°C until usage.
(§2) The IC50 values reported herein were determined using either a fluorescent based assay (CMNPC as substrate) for purified enzyme preparations or a radioactive based assay ([^3H]t-DPPO as substrate) for crude enzyme preparations ([20]). The fluorescent assay was used with the purified proteins. […] The substrate (CMNPC) was then added ([S]final = 5 μM). […] The radioactive […] assay was used with the liver crude extracts. Extracts were incubated with inhibitors ([I]final = 1–1,000 nM) at 30° C for 5 min in sodium phosphate buffer (pH 7.4) containing 0.1 mg/mL of BSA and 1% of DMSO, prior to substrate introduction ([^3H]t-DPPO [S]final: 50 μM; ~12,000 dpm/assay). The enzymes were incubated at 30°C for 10 min, and the reaction was quenched by the addition of 60 μL methanol and 200 μL isooctane, which extracts the remaining epoxide from the aqueous phase. […] Assays were performed in triplicate.

[4] = target: T2, sEH activity from liver cytosol of Pig (Sus scrofa, UniProt Q6Q2C2); experiment: as above
T2 construct: The radioactive fluorescent assay was used with the liver crude extracts; from tissue; host or cells: pig liver cytosol (100,000 g supernatant)
T2 sequence (Q6Q2C2 1-555): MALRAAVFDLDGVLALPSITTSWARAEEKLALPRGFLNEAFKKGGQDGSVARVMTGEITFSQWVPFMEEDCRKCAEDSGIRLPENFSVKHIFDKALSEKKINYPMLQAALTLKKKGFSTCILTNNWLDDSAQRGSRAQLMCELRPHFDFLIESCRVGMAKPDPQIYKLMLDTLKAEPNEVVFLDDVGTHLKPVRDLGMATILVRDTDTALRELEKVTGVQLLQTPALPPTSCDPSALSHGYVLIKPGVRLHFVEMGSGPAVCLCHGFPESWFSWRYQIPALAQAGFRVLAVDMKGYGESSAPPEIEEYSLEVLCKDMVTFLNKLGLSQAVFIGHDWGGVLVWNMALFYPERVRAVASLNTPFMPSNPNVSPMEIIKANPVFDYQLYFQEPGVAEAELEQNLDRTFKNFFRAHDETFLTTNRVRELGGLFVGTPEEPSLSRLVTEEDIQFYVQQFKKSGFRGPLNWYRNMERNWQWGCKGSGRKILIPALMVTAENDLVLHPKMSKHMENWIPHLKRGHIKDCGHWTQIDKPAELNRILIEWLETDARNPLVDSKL
Excerpt: as §1, §2

[5] = target: T3, Dog sEH (Canis lupus familiaris, UniProt A0A8I3NJL8); experiment: Secondary screen (kinetic mode), PHOME substrate; details: [I] = 100 nM, secondary kinetic mode screening; read-out: Dog sEH Inhibition (%) S.
T3 sequence (A0A8I3NJL8 1-556): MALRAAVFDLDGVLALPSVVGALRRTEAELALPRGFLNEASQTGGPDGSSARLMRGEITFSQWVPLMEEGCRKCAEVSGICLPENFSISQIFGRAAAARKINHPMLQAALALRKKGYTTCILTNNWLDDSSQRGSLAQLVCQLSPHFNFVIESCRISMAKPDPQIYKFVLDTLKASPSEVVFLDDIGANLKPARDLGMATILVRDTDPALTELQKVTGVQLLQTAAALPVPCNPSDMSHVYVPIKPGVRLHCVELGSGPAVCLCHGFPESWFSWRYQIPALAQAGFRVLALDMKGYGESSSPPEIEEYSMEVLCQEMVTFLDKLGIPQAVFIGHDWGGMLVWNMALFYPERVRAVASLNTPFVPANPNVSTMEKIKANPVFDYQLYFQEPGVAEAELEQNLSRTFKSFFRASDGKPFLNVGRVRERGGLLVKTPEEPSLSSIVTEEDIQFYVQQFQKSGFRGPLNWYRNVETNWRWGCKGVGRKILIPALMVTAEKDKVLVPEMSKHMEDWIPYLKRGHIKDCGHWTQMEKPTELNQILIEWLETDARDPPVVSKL

[6] = target: Horse sEH (Equus caballus, UniProt F7C407); details: CMNPC ([S]final = 5 μM) as substrate; average ± standard deviation (n = 3)
Chain of Horse sEH (F7C407 entry or part of it): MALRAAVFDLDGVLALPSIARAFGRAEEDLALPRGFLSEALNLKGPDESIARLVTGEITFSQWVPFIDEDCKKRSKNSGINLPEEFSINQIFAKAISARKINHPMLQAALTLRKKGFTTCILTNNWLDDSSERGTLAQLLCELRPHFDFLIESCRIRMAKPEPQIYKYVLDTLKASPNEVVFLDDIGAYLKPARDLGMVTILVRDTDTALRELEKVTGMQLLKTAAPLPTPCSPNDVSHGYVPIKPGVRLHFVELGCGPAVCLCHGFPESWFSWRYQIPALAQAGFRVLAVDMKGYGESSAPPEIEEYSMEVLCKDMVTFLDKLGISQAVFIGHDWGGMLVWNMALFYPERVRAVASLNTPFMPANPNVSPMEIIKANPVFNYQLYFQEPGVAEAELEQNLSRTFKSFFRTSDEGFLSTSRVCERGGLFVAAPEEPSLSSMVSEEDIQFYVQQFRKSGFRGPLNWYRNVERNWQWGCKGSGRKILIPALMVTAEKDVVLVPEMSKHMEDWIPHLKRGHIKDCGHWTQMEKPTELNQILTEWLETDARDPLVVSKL
Experimental: (§3) The sEH activity from the cat, dog and horse liver was further purified to eliminate contaminating esterase activity that could interfere with the screening fluorescent assay ([16]). The cytosolic fraction was loaded on a Q-Sepharose column (100 mL) equilibrated with sodium phosphate buffer (20 mM pH 7.4). After washing of the bound proteins, the sEH activity was eluted with a step gradient of NaCl (0–1 M). The fractions containing the sEH activity were pooled and concentrated using a Centriprep-30. The concentrates were aliquoted and flash frozen, then kept frozen at −80°C until usage. […] Protein concentration was quantified using the Pierce BCA assay (Pierce, Rockford, IL), using Fraction V bovine serum albumin (BSA) as the calibrating standard.
(§4) The IC50 values reported herein were determined using either a fluorescent based assay (CMNPC as substrate) for purified enzyme preparations or a radioactive based assay ([^3H]t-DPPO as substrate) for crude enzyme preparations ([20]). The fluorescent assay was used with the purified proteins. […] The substrate (CMNPC) was then added ([S]final = 5 μM). […] The radioactive […] assay was used with the liver crude extracts. […]

[7] = target: T3, Dog sEH; experiment: sEH inhibition potency (IC50), fluorescent assay with CMNPC, partially purified enzyme; details: CMNPC ([S]final = 5 μM) as substrate; average ± standard deviation (n = 3)
Experimental: as §3, §4

[8] = [3H]t-DPPO ([S]final = 5 μM) as substrate, read-out: IC50 (nM) Sheep
[9] = liver cytosol, [3H]t-DPPO ([S]final = 5 μM) as substrate, read-out: IC50 (nM) Pig

T1 sequence (A0ABI7ZL20 entry or part of it): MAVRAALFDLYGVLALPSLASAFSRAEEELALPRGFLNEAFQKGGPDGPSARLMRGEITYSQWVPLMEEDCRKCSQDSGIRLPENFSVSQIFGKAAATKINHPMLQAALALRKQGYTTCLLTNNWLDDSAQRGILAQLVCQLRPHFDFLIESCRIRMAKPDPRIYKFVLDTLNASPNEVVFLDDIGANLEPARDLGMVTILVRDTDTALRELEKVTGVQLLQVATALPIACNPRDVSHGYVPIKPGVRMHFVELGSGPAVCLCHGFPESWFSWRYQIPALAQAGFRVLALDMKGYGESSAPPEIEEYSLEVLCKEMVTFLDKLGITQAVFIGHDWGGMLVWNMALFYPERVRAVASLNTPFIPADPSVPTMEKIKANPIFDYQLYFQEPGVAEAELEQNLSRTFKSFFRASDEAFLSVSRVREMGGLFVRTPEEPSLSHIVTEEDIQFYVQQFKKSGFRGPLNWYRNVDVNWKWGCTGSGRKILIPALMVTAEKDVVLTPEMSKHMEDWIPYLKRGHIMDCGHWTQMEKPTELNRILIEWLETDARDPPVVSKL

## O=C(NCCCCOc1ccc(F)cc1)NC12CC3CC(CC(C3)C1)C2 [1,707]
[1]
  inhibition at 0.1 µM: 99%
[2]
  IC50: 0.5 ± 0.02 nM
[3]; [8]
  IC50: 2 nM
[4]; [9]
  IC50: 6 nM
[5]
  inhibition at 0.1 µM: 83%
[6]
  IC50: 0.5 ± 0.03 nM
[7]
  IC50: 0.9 ± 0.1 nM

## O=C(Nc1ccc(OC(F)(F)F)cc1)N[C@H]1CC[C@H](Oc2ccc(C(=O)O)cc2)CC1 [1,728, trans-4-{4-[3-(4-trifluoromethoxy-phenyl)-ureido]-cyclohexyloxy}-benzoic acid]
[3]; read-out: IC50 (nM) Sheep, [3H]t-DPPO ([S]final = 5 μM) as substrate
  IC50: 6 nM
[4]
  IC50: 9 nM

## N#CNC(=O)CCCCCCCCCCCNC(=O)NC12CC3CC(CC(C3)C1)C2 [1,845]
[1]
  inhibition at 0.1 µM: 104%
[2]
  IC50: 0.4 ± 0.01 nM
[3]; [8]
  IC50: 7 nM
[4]; [9]
  IC50: 81 nM
[5]
  inhibition at 0.1 µM: 83%
[6]
  IC50: 0.4 ± 0.01 nM
[7]
  IC50: 0.6 ± 0.04 nM
